Source: PMC4503722, “Novel Phenotypic Outcomes Identified for a Public Collection of Approved Drugs from a Publicly Accessible Panel of Assays” (PLoS ONE, 2015)
Where a name gives a salt, the structure may show the parent alone. Read-outs that look alike come from different tables or passages of the source.

Experiments:
[1] = target: T1, hKDR (Homo sapiens, UniProt P35968); test: Cerep LANCE kinase assay hKDR (S1 assay 32); format: biochemical; details: for IC50: read-out: KDR
T1 construct: purchased Cerep (LANCE kinase assay platform, contract assay)

[2] = test system: SW480; test: cells; format: cell-based
[3] = test system: nuclear β-catenin in C2C12 cells; test: cells; format: cell-based
[4] = test system: DLD-1; test: cells; format: cell-based
[5] = test system: endothelial tube formation in co-cultures of ECFCs and ADSCs treated with VEGF; test: cells; format: cell-based, human
[6] = target: T2, hp70S6K1 (RPS6KB1) (Homo sapiens, UniProt P23443); test: Cerep LANCE kinase assay hp70S6K1 (S1 assay 31); format: biochemical; details: for IC50: read-out: p70S6K1
T2 construct: purchased Cerep (LANCE kinase assay platform, contract assay)

[7] = target: T3, hJAK2 (Homo sapiens, UniProt O60674); test: Cerep LANCE kinase assay hJAK2 (S1 assay 33); format: biochemical; details: for IC50: read-out: JAK2
T3 construct: purchased Cerep (LANCE kinase assay platform, contract assay)

[8] = test system: NCI-H716 cells; test: cells; format: cell-based, Human
[9] = test system: INS-1E cells; test: cells; format: cell-based, rat
[10] = test system: HCT116; test: cells; format: cell-based
[11] = target: T4, hGSK3b (Homo sapiens, UniProt P49841); test: Cerep LANCE kinase assay hGSK3b (S1 assay 34); format: biochemical; details: for IC50: read-out: GSK3b
T4 construct: purchased Cerep (LANCE kinase assay platform, contract assay)

[12] = test system: HCT116 cells treated with a GSK3β inhibitor; test: cells; format: cell-based
[13] = target: T5, hFLT3 (Homo sapiens, UniProt P36888); test: Cerep LANCE kinase assay hFLT3 (S1 assay 35); format: biochemical; details: for IC50: read-out: FLT3
T5 construct: purchased Cerep (LANCE kinase assay platform, contract assay)

[14] = test system: HeLa cells; test: cells; format: cell-based; details: read-out: CellCycle G2/M
[15] = test system: HT-29; test: cells; format: cell-based; details: Homo sapiens
[16] = test system: RKO; test: cells; format: cell-based; details: Homo sapiens, RKO
[17] = test system: Colo320; test: cells; format: cell-based; details: Homo sapiens
[18] = test system: SNU-C1; test: cells; format: cell-based; details: Homo sapiens
[19] = Homo sapiens, SW480, read-out: Basal_Viability ATP SW480
[20] = Mus musculus, C2C12, read-out: Wnt Pathway
[21] = Homo sapiens, DLD-1, read-out: Basal_Viability ATP DLD-1
[22] = Homo sapiens, read-out: Anti-Angiogenesis
[23] = Homo sapiens, NCI-H716, read-out: GLP 1 Secretion
[24] = Rattus norvegicus, INS-1E, read-out: Insulin Secretion
[25] = Homo sapiens, HCT-116, read-out: Basal_Viability ATP HCT116
[26] = Homo sapiens, HCT-116, read-out: GSK3b inh pretreated_Viability ATP HCT116
[27] = Homo sapiens, SW480, basal, SW480, read-out: Basal_Viability ATP SW480
[28] = Homo sapiens, HeLa, S2 Table, HeLa, 20 = no response at highest concentration
[29] = Mus musculus, C2C12; read-out: Wnt Pathway
[30] = Homo sapiens, DLD-1, basal, DLD-1, read-out: Basal_Viability ATP DLD-1
[31] = Homo sapiens; read-out: Anti-Angiogenesis
[32] = Homo sapiens, NCI-H716; read-out: GLP 1 Secretion
[33] = Rattus norvegicus, INS-1E; read-out: Insulin Secretion
[34] = Homo sapiens, HCT-116, basal, HCT116, read-out: Basal_Viability ATP HCT116
[35] = Homo sapiens, HCT-116, HCT116 pretreated with GSK3b inhibitor, read-out: GSK3b inh pretreated_Viability ATP HCT116
[36] = Homo sapiens, SW480, 72 h, read-out: SW480 viab. IC50
[37] = Homo sapiens, DLD-1, 72 h, read-out: DLD-1 viab. IC50
[38] = Homo sapiens, NCI-H716, read-out: GLP1 sec. EC50
[39] = Rattus norvegicus, INS-1E, read-out: Ins. sec. EC50
[40] = Homo sapiens, HCT-116, 72 h, read-out: HCT-116 viab. IC50
[41] = Homo sapiens, HCT-116, 72 h, read-out: HCT-116 (GSK3β) viab. IC50
[42] = HT-29, read-out: Basal_Viability ATP HT-29
[43] = SNU-C1, read-out: Basal_Viability ATP SNU-C1

T1 sequence (P35968 20-1356): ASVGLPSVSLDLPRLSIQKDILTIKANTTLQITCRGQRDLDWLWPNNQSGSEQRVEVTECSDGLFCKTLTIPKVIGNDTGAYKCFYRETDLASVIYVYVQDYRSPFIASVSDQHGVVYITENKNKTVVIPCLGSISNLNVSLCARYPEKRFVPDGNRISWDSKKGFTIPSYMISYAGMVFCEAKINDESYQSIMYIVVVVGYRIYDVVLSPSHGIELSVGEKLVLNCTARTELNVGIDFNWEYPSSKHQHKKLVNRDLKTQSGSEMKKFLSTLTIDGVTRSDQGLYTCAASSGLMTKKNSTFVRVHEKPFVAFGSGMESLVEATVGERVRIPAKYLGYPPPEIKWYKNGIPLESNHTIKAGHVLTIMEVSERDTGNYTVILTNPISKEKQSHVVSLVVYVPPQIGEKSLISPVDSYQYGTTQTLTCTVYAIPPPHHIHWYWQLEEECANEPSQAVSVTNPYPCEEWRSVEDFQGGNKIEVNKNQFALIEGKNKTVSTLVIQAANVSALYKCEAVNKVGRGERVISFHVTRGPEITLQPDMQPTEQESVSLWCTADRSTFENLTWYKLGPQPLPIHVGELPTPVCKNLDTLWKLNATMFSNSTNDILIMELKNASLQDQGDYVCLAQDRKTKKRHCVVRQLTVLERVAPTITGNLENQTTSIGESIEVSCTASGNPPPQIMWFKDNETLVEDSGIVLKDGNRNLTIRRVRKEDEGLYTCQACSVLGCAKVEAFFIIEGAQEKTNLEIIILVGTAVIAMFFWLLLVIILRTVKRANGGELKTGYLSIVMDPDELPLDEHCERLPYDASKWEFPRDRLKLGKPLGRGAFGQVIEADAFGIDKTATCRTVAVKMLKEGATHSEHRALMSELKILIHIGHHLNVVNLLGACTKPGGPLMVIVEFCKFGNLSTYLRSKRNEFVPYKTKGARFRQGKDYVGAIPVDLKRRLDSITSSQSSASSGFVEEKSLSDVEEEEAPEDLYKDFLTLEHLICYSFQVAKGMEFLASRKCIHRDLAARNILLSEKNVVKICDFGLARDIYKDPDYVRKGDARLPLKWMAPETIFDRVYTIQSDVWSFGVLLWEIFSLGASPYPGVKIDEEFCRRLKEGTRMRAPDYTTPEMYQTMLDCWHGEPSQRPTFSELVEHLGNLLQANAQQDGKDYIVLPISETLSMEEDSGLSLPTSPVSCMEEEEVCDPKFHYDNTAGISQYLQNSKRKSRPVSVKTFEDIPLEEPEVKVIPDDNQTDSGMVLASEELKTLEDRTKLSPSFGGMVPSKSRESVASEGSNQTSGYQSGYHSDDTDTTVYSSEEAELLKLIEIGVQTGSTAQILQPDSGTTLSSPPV
T3 sequence (O60674 whole entry): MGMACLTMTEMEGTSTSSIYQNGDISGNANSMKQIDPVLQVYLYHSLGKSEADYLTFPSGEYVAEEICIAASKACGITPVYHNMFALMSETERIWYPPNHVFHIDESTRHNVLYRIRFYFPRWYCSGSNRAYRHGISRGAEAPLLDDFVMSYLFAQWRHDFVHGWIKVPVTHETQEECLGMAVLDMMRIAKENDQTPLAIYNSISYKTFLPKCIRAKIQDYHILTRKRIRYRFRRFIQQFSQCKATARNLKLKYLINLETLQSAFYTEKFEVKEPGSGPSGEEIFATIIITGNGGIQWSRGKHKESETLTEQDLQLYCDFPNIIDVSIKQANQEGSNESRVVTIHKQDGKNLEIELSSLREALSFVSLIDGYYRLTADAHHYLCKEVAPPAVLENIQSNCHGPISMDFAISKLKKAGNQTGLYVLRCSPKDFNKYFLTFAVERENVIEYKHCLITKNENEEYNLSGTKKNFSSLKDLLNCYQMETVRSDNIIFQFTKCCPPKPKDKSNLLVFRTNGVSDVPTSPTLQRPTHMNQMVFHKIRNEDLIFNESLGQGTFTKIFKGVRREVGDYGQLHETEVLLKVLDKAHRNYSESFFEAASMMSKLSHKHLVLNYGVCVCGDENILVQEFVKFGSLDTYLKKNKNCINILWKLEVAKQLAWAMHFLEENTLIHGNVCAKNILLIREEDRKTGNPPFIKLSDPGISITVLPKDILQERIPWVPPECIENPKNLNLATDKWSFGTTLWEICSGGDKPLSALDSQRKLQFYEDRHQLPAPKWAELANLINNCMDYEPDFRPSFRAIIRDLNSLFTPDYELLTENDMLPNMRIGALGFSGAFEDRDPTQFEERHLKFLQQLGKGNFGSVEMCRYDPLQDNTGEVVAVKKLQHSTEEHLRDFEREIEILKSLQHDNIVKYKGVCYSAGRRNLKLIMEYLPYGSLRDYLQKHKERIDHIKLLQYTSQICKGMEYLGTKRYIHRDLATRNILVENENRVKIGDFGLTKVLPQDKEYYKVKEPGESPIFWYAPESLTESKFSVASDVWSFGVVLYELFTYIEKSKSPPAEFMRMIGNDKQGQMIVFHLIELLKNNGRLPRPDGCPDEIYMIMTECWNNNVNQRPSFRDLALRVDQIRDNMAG
T2 sequence (P23443 whole entry): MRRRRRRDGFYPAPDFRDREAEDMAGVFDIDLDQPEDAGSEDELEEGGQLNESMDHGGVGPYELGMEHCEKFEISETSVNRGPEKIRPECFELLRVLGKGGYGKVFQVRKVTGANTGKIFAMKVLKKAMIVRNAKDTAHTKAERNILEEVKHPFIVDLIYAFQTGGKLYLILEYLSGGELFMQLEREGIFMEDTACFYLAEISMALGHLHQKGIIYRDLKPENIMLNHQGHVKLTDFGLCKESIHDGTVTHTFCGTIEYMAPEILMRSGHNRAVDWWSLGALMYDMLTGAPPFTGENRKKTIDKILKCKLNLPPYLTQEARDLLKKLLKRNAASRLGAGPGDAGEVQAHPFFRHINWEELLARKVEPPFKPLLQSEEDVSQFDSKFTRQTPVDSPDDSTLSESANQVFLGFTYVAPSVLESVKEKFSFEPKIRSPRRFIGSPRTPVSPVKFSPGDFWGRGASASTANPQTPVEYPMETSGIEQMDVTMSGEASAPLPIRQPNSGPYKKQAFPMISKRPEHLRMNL
T4 sequence (P49841 whole entry): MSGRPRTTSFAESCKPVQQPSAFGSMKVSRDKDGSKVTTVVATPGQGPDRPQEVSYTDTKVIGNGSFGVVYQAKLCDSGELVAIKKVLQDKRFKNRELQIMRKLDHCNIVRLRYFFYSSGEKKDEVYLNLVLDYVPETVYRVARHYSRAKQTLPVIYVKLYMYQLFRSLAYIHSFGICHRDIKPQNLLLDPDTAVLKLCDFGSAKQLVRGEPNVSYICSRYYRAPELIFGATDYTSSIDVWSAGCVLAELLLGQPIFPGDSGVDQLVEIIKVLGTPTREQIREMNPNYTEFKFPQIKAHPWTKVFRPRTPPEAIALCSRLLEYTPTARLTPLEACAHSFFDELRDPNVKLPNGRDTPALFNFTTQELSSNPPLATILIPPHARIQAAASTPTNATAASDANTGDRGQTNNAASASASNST
T5 sequence (P36888 27-993): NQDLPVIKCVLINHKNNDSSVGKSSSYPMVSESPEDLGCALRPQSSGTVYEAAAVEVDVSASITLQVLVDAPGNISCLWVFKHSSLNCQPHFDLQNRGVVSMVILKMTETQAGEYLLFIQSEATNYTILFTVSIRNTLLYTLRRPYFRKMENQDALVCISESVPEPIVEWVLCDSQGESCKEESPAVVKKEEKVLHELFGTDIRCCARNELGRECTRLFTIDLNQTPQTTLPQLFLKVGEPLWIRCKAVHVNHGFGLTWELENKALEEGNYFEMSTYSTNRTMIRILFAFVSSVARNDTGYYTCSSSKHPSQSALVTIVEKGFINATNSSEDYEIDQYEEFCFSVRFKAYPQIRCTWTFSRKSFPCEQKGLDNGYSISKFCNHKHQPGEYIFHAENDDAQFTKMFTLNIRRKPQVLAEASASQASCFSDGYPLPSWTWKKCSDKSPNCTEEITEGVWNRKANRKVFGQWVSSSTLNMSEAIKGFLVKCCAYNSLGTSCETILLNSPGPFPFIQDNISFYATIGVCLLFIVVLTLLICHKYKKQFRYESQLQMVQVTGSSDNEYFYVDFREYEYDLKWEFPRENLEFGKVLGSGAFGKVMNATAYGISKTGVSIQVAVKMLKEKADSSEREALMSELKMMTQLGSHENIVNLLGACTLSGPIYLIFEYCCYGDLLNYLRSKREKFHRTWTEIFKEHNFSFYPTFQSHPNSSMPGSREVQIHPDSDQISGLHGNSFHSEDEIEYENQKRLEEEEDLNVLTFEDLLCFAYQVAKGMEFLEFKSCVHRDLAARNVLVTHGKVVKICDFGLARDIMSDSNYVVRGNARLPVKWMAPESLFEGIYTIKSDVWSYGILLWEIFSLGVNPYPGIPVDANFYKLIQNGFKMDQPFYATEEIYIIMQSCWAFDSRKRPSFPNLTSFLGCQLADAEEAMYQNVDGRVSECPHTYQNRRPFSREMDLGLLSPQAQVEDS

Structure (SMILES)	IC50 [1] [µM]	IC50 [2, 19] [µM]	IC50 [4, 21] [µM]	IC50 [5, 22] [µM]	IC50 [6] [µM]	IC50 [7] [µM]	EC50 [8, 23] [µM]	EC50 [9, 24] [µM]	IC50 [10, 25] [µM]	IC50 [11] [µM]	IC50 [12, 26] [µM]	IC50 [13] [µM]	EC50 ([14]; Homo sapiens, HeLa) [µM]	IC50 ([1]; kinase assay) [µM]	IC50 ([6]; kinase assay) [µM]	IC50 ([7]; kinase assay) [µM]	IC50 ([11]; kinase assay) [µM]	IC50 ([13]; kinase assay) [µM]	further results
CCC1=C[C@@H]2CN(C1)Cc1c([nH]c3ccccc13)[C@@](C(=O)OC)(c1cc3c(cc1OC)N(C)[C@H]1[C@@](O)(C(=O)OC)[C@H](OC(C)=O)[C@]4(CC)C=CCN5CC[C@]31[C@@H]54)C2 [vinorelbine]	> 20	0.342	0.214	0.0055	> 20	> 20	> 10	> 10	0.0964	> 20	0.0667	> 20	–	–	–	–	–	–	EC50 [3, 20]: 0.0089 µM
CC[C@@H]([C@H](C)O)n1ncn(-c2ccc(N3CCN(c4ccc(OC[C@@H]5CO[C@@](Cn6cncn6)(c6ccc(F)cc6F)C5)cc4)CC3)cc2)c1=O [posaconazole]	> 20	5.81	> 20	6.46	> 20	> 20	> 10	> 10	6.24	> 20	> 20	> 20	> 10	–	–	–	–	–	EC50 [3, 20]: 1.63 µM
CC[C@]1(O)C[C@H]2CN(CCc3c([nH]c4ccccc34)[C@@](C(=O)OC)(c3cc4c(cc3OC)N(C=O)[C@H]3[C@@](O)(C(=O)OC)[C@H](OC(C)=O)[C@]5(CC)C=CCN6CC[C@]43[C@@H]65)C2)C1 [vincristine]	> 20	3.08	0.786	0.0065	> 20	> 20	> 10	> 10	0.126	> 20	0.0667	> 20	0.0059	–	–	–	–	–	EC50 [3, 20]: 0.004 µM
CCCCCCNC(=O)n1cc(F)c(=O)[nH]c1=O [Carmofur]	> 20	–	–	–	> 20	> 20	–	–	–	> 20	–	> 20	–	–	–	–	–	–	IC50 ([2]; Homo sapiens, SW480, basal, read-out: Basal_Viability ATP SW480): 10.6 µM; EC50 ([14]; Homo sapiens, HeLa, IC50 / EC50, HeLa): > 10 µM; EC50 ([3]; Mus musculus, C2C12, IC50 / EC50; C2C12 beta-catenin translocation; read-out: Wnt Pathway): 4.98 µM; IC50 ([4]; Homo sapiens, DLD-1, basal, read-out: Basal_Viability ATP DLD-1): > 20 µM; IC50 ([5]; Homo sapiens, IC50 / EC50; endothelial tube area, ADSC/ECFC co-culture; read-out: Anti-Angiogenesis): 4.49 µM; EC50 ([8]; Homo sapiens; IC50 / EC50; NCI-H716; read-out: GLP 1 Secretion): > 10 µM; EC50 ([9]; Rattus norvegicus; IC50 / EC50; INS-1E; read-out: Insulin Secretion): > 10 µM; IC50 ([10]; Homo sapiens, HCT-116, basal, read-out: Basal_Viability ATP HCT116): > 20 µM; IC50 ([12]; Homo sapiens, HCT-116, GSK3b inhibitor pretreated, read-out: GSK3b inh pretreated_Viability ATP HCT116): 10.5 µM
COC(=O)Nc1nc2ccc(C(=O)c3cccs3)cc2[nH]1 [Nocodazole]	–	–	–	–	–	–	–	–	–	–	–	–	–	6.61	> 20	> 20	19.9	> 20	IC50 [2, 27]: > 20 µM; EC50 [14, 28]: 0.0221 µM; EC50 [3, 29]: 0.0434 µM; IC50 [4, 30]: 1.66 µM; IC50 [5, 31]: 0.102 µM; EC50 [8, 32]: > 10 µM; EC50 [9, 33]: > 10 µM; IC50 [10, 34]: 1.08 µM; IC50 [12, 35]: 1.12 µM
[O-][n+]1ccccc1SSc1cccc[n+]1[O-] [Dipyrithione magnesium sulfate]	> 20	–	–	–	> 20	> 20	–	–	–	> 20	–	> 20	–	–	–	–	–	–	IC50 ([2]; read-out: Basal_Viability ATP SW480): > 20 µM; EC50 [14]: > 10 µM; EC50 ([3]; read-out: Wnt Pathway): 0.131 µM; IC50 ([4]; read-out: Basal_Viability ATP DLD-1): > 20 µM; IC50 ([5]; read-out: Anti-Angiogenesis): 0.719 µM; EC50 ([8]; read-out: GLP 1 Secretion): > 10 µM; EC50 ([9]; read-out: Insulin Secretion): > 10 µM; IC50 ([10]; read-out: Basal_Viability ATP HCT116): 20 µM; IC50 ([12]; read-out: GSK3b inh pretreated_Viability ATP HCT116): > 20 µM
CCCCCCCCCCCCCCCCNc1ccc(C(=O)O)cc1 [cetaben sodium, sodium p-(hexadecylamino) benzoate, reference compound]	> 20	4.39	10.6	0.367	> 20	> 20	–	–	–	> 20	7.41	> 20	> 10	–	–	–	–	–	inhibition of KDR activity (in words) [1]: does not inhibit; IC50 [2, 36]: 4.4 µM; EC50 ([3]; Mus musculus, C2C12, read-out: Wnt pot. EC50): > 10 µM; IC50 [4, 37]: 10.6 µM; inhibition of endothelial tube / cord formation (in words) [5]: uniquely inhibited endothelial cord formation; IC50 ([5]; Homo sapiens, read-out: Anti-Angio IC50): 0.37 µM; inhibition of RPS6KB1 activity (in words) [6]: does not inhibit; inhibition of JAK2 activity (in words) [7]: does not inhibit; EC50 [8, 38]: > 10 µM; EC50 [9, 39]: > 10 µM; IC50 [10, 40]: > 20 µM; inhibition of GSK3β activity (in words) [11]: does not inhibit; IC50 [12, 41]: 7.4 µM; inhibition of FLT3 activity (in words) [13]: does not inhibit
C[C@@]12C(=O)OC(=O)[C@]1(C)[C@H]1CC[C@@H]2O1 [Cantharidine]	–	–	–	–	–	–	–	–	–	–	–	–	–	> 20	> 20	> 20	> 20	> 20	IC50 ([2]; Homo sapiens, basal, SW480, read-out: Basal_Viability ATP SW480): 1.86 µM; EC50 ([14]; Homo sapiens, S2 Table, HeLa, 20 = no response at highest concentration): > 10 µM; EC50 [3, 29]: 1.49 µM; IC50 ([4]; Homo sapiens, basal, DLD-1, read-out: Basal_Viability ATP DLD-1): 1.12 µM; IC50 [5, 31]: 1.23 µM; EC50 [8, 32]: 6.68 µM; EC50 [9, 33]: > 10 µM; IC50 [10, 34]: 7.71 µM; IC50 [12, 35]: 3.03 µM
CCCOc1ccc2nc(NC(=O)OC)[nH]c2c1 [Oxibendazole]	–	–	–	–	–	–	–	–	–	–	–	–	–	> 20	> 20	> 20	> 20	> 20	IC50 [2, 27]: > 20 µM; EC50 [14, 28]: 0.0567 µM; EC50 [3, 29]: 0.0881 µM; IC50 [4, 30]: > 20 µM; IC50 [5, 31]: 0.328 µM; EC50 [8, 32]: > 10 µM; EC50 [9, 33]: > 10 µM; IC50 [10, 34]: 4.75 µM; IC50 [12, 35]: > 20 µM
CC(C)C[C@H](NC(=O)[C@H](Cc1ccccc1)NC(=O)c1cnccn1)B(O)O [bortezomib, reference compound]	> 20	0.00513	0.00636	–	> 20	> 20	–	–	0.00365	> 20	0.00241	> 20	> 10	–	–	–	–	–	IC50 [2, 36]: 0.005 µM; IC50 ([15]; HT-29, 72 h, read-out: HT-29 viab. IC50): 0.003 µM; IC50 [15, 42]: 0.00315 µM; IC50 [4, 37]: 0.006 µM; EC50 [8, 38]: > 10 µM; EC50 [9, 39]: > 10 µM; IC50 [10, 40]: 0.004 µM; IC50 ([16]; 72 h, read-out: RKO viab. IC50): 0.008 µM; IC50 ([16]; read-out: Basal_Viability ATP RKO): 0.0081 µM; IC50 ([17]; COLO 320, 72 h, read-out: Colo320 viab. IC50): 2.8 µM; IC50 ([18]; SNU-C1, 72 h, read-out: SNU-C1 viab. IC50): 0.003 µM; IC50 [18, 43]: 0.0032 µM; IC50 [12, 41]: 0.002 µM
O=c1[nH]c(=O)n([C@H]2C[C@H](O)[C@@H](CO)O2)cc1C(F)(F)F [Trifluridine]	–	> 20	> 20	–	–	–	> 10	> 10	–	–	1.25	–	> 10	> 20	> 20	> 20	> 20	> 20	IC50 [15, 42]: > 20 µM; IC50 ([17]; COLO 320, read-out: Basal_Viability ATP Colo 320): > 20 µM; IC50 [18, 43]: > 20 µM
